From patent EP0335545B2, “Pharmaceutical formulations for parenteral use” (UNIVERSITY OF FLORIDA, priority 1988, dated 1989)
In brackets after ≈: the same amount, converted by molar mass.

Tests used:
[1] = Maximum concentrations of selected CDS in varying concentrations of selected cyclodextrins; type: physicochemical
Description: In further testing, maximum concentrations of selected CDS in varying concentrations of selected cyclodextrins were determined. The concentration of E2-CDS (mg/mL) was as follows: […]

[2] = Preparation of solid freeze-dried HPCD complexes: degree of incorporation; type: physicochemical
Description: An excess of E2-CDS was added and the solution then was purged with helium. The resulting suspension was then sonicated for 30 minutes, filtered through a glass filter (ASTM 10-15M, Pyrex No. 36060) and freeze-dried overnight. Best results were obtained by hard-freezing the aqueous solution of the E2-CDS/HPCD complex for at least 10 hours before lyophilization. The degree of complex formation was determined by dissolving a small amount of the dry complex in methanol and then analyzing by high pressure liquid chromatography (HPLC).
An excess of E2-CDS or other CDS was added to a 50% w/w solution of HPCD. The suspension was sonicated for 30 minutes, filtered through 0.45 µm PVDF membranes and freeze-dried. The degree of incorporation was determined either spectrophotometrically or by HPLC. In some cases, the effect of solubilizing agents on the degree of incorporation was examined. This involved adding small amounts of polyoxyethylene 20 cetyl ether (Brij), polyoxyethylene sorbitan monooleate (Tween 80) or ethanol to the aqueous solution prior to lyophilization.
(§1) The retention time was 5.2 min. Other compounds were assayed spectrophotometrically.
The solution was degassed and the suspension was sonicated for 30 minutes, after which it was filtered and the filtrate was lyophilized. The dried filtrate contained 65.6 mg testosterone propionate or 29.6 mg T-CDS1 per gram of cyclodextrin complex. Compounds were analyzed for decomposition by thin-layer chromatography and ultraviolet absorption.

physchem [3] = type: physicochemical
Description: as §1

physchem [4] = settings: 50% w/w aqueous hpcd
Description: An excess of E2-CDS was sonicated with an aqueous solution of the appropriate solubilizing agent for 30 minutes. The suspension was then centrifuged, filtered through 0.45 µm polyvinylidene difluoride (Millex-HV4, Millipore®) membranes and analyzed by HPLC. […] An estimation of the bulk equilibrium constant was obtained by correlating the millimolarity of E2-CDS solubilized and the millimolarity of the cyclodextrin added. This latter value was calculated using the average molecular weight of the isomeric mixture determined by mass spectroscopy. The solubilizing effect of a 50% w/w solution of HPCD was also examined for a series of steroids and dihydropyridines (CDS). These studies were carried out in a similar manner to those previously described.
For the CDS, the wavelength monitored was 360 nm while for estrogen 220 nm was used.
Separation was achieved on an Analytical Sciences, Inc. (ASI) 10 µm particle size, C18 reversed phase 30 cm x 3.9 mm i.d. analytical column. The flow rate was 1 mL/min, the compounds were detected at 360 nm and in all determinations the temperature was ambient. […] For the GABA-CDS1, a mobile phase consisting of 50:1:1:48 of the same components was required. […] Other compounds were assayed spectrophotometrically.

[5] = Solid complex of E2-CDS with maltosyl-β-cyclodextrin/dimaltosyl-β-cyclodextrin mixture; type: physicochemical
Description: In one example of the formulation of a solid complex, an excess of a representative CDS, E2-CDS, was added to a 40% aqueous solution of a mixture of maltosyl-β-cyclodextrin (71%) and various dimaltosyl-β-cyclodextrins (29%) obtained from Ensuiko Sugar Co., Ltd., Lot No. 88190, and mixed for several hours. The suspension was then filtered and freeze-dried, and the amount of complexed drug was determined analytically by UV spectraphotometry. The amount of incorporation was determined to be 81.88 mg/g.

[6] = Aqueous solubility and stability of the E2-CDS-HPCD complex; type: physicochemical
Description: The E2-CDS-HPCD complex contains about 40 mg of E2-CDS/g and easily gives aqueous solutions containing 5 mg E2-CDS/mL at 20% w/v cyclodextrin. […] The halflife of E2-CDS in such a solution at room temperature in the dark is about 12.5 days (rate: 0.0554 ± 0.0047d^-1).

CN1C=CCC(C(=O)O[C@H]2CC[C@H]3[C@@H]4CCc5cc(O)ccc5[C@H]4CC[C@]23C)=C1 [Example E2-CDS, 3-Hydroxy-17β-[(1-methyl-1,4-dihydropyridin-3-yl)carbonyl]oxyestra-1,3,5(10)-triene]
solubility ([1]; 20% hebcd): 3090 µg/mL (≈ 7.85 mM)
solubility ([1]; 20% hpcd): 6730 µg/mL (≈ 17.1 mM)
solubility ([1]; 40% hebcd): 6070 µg/mL (≈ 15.4 mM)
solubility ([1]; 40% hpcd): 11900 µg/mL (≈ 30.2 mM)
solubility ([1]; 40% hpgcd): 4000 µg/mL (≈ 10.2 mM)
stability of the solid complex [2]: stable as a dry powder
degree of complexation ([2]; 50% (w/w) HPCD, freeze-dried): 20 to 40 mg/g
upper limit for a stable complex ([2]; HPCD complex): approximately 40 mg/g
degree of incorporation ([2]; addition of Brij (0.7% w/w)): 189 mg/g
degree of incorporation after storage ([2]; addition of Brij (0.7% w/w), in 12 days): 42 mg/g
effect on degree of incorporation ([2]; addition of Tween 80 (0.8% w/w) or ethanol (10% v/v)): only modest effects
Amount of Drug in Dry Complex ([2]; freeze-dried complex from 50% w/w HPCD (ASDS 5.1)): 37 mg/g
increase in incorporation with the lower ASDS material (physchem [3]): 15%
increase in solubility over the solubility in water (physchem [3]): 150,000 fold
slope of millimolarity of E2-CDS solubilized versus millimolarity of HPCD added (estimation of bulk stability of the complex) (physchem [3]): 0.2
solubility (physchem [3]; 10 mm aqueous β-cyclodextrin, Maximum Solubility): 27 µg/mL (≈ 0.0686 mM)
solubility (physchem [3]; 10 mm aqueous γ-cyclodextrin, Maximum Solubility): 22 µg/mL (≈ 0.0559 mM)
solubility (physchem [3]; 50 mm aqueous α-cyclodextrin, Maximum Solubility): 5 µg/mL (≈ 0.0127 mM)
solubility (physchem [3]; 62.5% w/v aqueous hpcd, Maximum Solubility): 30200 µg/mL (≈ 76.7 mM)
solubility (physchem [3]; water, Maximum Solubility (solubility of E2-CDS in water)): 0.2 µg/mL (≈ 0.000508 mM)
solubility (physchem [3]; water, water solubility): 0.2 µg/mL (≈ 0.000508 mM)
solubility (physchem [4]): 22000 µg/mL (≈ 55.9 mM)
amount of incorporation ([5]; 40% aqueous maltosyl-β-cyclodextrin (71%) / dimaltosyl-β-cyclodextrins (29%), freeze-dried): 81.88 mg/g
amount of incorporation, comparable figure ([5]; HPCD): approximately 36.2 mg/g
rate (of degradation) ([6]; 5 mg E2-CDS/mL at 20% w/v cyclodextrin, room temperature in the dark): 0.0554 ± 0.0047 day⁻¹
half-life ([6]; 20% w/v aqueous hpcd, 5 mg E2-CDS/mL at 20% w/v cyclodextrin, room temperature in the dark): ~12.5 days
increase in aqueous solubility by complexation ([6]; 20% w/v cyclodextrin versus water): 25,000 fold
